From ChEMBL document CHEMBL3507680, “University of Dundee, Gates Library screen for HepG2 cell viability” come the findings set out here.

The data set is described as follows: Human HepG2 cell viability assay in 384 well format. It is filed as toxicity, cell-based. On the set-up: dose 125 nL, time 70.5 hour; concentration not given beside the values. Particulars: HepG2 cells, read-out: Inhibition.
As for `Cc1ccc(-n2nnnc2SCN2CCCCC2=O)cc1C`, the cytotoxicity at 70.5 h is -3.89%.
The figure for `CCc1ccc(C(=O)N2CCC(N(C)C(=O)OC(C)(C)C)C2)o1` (stereo not given) is 0.0812%; for `CN(Cc1ccccc1)C(=O)c1cc2c(c(S(N)(=O)=O)c1)CCC2` it is 30.7%; for `Cc1ccc(CN(C)C(=O)c2cc3c(c(S(N)(=O)=O)c2)CCC3)o1` it is -1.72%.
The figure for `NS(=O)(=O)c1ccc(NCc2ccccc2F)cc1C(F)(F)F` is 1.33%; for `Cc1cc(CN2CCN(Cc3ccc(C#N)cc3F)CC2)no1` it is 1.27%; for `COc1ccc(NC(=O)N2CCN(CCSc3ccccc3)CC2)cc1` it is 3.81%.
With `Cc1cc(C2CCCN2C(=O)c2csc(-c3cnn(C)c3)n2)on1` (stereo not given), the cytotoxicity at 70.5 h came to 2.44%.
The figure for `CCn1cc(NC(=O)N2CCN(C(=O)Oc3ccccc3)CC2)cn1` is -4.12%; for `Cc1cc(C2CCCN2C(=O)Nc2cn[nH]c2)on1` (stereo not given) it is -4.06%.
The figure for `CS(=O)(=O)c1ccccc1-n1cc(NC(=O)CC(F)(F)F)cn1` is -4.54%.
The figure for `CC(C)(C)CC(=O)Nc1cnn(-c2ccccc2S(C)(=O)=O)c1` is -5.49%; for `CC(C)(C)C(=O)Nc1cnn(-c2ccccc2S(C)(=O)=O)c1` it is -9.09%; for `CCc1ccc(S(=O)(=O)Nc2ccncc2)s1` it is -5.81%.
Regarding `Cc1c(C[S+](C)[O-])cccc1NC(=O)c1cc(Cl)ccn1` (stereo not given), the cytotoxicity at 70.5 h was -2.39%.
The figure for `CN1CCN(C2CCN(CC(O)c3ccccc3F)CC2)C1=O` (stereo not given) is 16.4%.
Under `N#Cc1cnc2c(F)cc(F)cc2c1NC1CCN(CC(N)=O)CC1` stands -5.14%.
Under `CCc1ccc(S(=O)(=O)Nc2cnccc2C)s1` stands -4.13%; under `CCS(=O)(=O)N1CCN(C(C)(C)CO)CC1`, -3.71%; under `CCn1c(C)cc(C(=O)Nc2ccccc2CN(C)C(C)=O)c1C`, -9.11%.
For the compound `CN(CC(C)(CO)CO)C(=O)Nc1cc(Cl)cc(Cl)c1`, the cytotoxicity at 70.5 h is -4.43%.
With `CN(Cc1ccc(Br)c2cccnc12)S(C)(=O)=O`, the cytotoxicity at 70.5 h was found to be 12.8%.
The figure for `OCCN(CCO)Cc1ccc(Br)c2cccnc12` is -1.86%; for `CC(NCCCN1CCCC1=O)c1cc(Br)ccc1F` (stereo not given) it is -5.24%.
The figure for `Cc1cc(CN2CCN(Cc3ccc(C#N)cc3OC(F)F)CC2)no1` is 18.7%.
The figure for `CCN(CCO)Cc1ccc(Br)c2cccnc12` is -1.88%.
For the compound `CC(NCC1(N(C)C)CCOCC1)c1ccc(SC(F)F)cc1` (stereo not given), the cytotoxicity at 70.5 h came to 2.6%.
The figure for `CN(Cc1nnc(C2CC2)o1)Cc1ccccc1N1CCOCC1` is -4.09%; for `COCCCS(=O)(=O)N1CCN(C(C)(C)CO)CC1` it is -7.76%; for `Cc1ccc(S(=O)(=O)NC(CO)CC(C)C)cc1N(C)C` (stereo not given) it is -3.97%.
Under `CC(C)Nc1nnc(SCc2nnc(C(C)(C)C)o2)s1` stands -6.2%; under `CN(Cc1c(F)cccc1Cl)C(=O)Cn1cnc(C#N)n1`, -7.04%; under `Cc1ccc(OCC(=O)Nc2ccc(S(C)(=O)=O)cc2)cc1C`, 14%.
With `O=C(NCCN1CCOCC1)c1cnc(-c2ccccc2F)s1`, the cytotoxicity at 70.5 h is -3.87%.
As for `CCc1nnc2n1CCN(C(=O)C1CCC(n3cccc3)CC1)C2` (stereo not given), the cytotoxicity at 70.5 h is -6.9%.
Under `Cn1ccc(C(=O)Nc2nccn2Cc2ccccc2Cl)cc1=O` stands -7.59%; under `Cc1nccn1-c1ccc(NS(=O)(=O)c2cccnc2)cn1`, -1.79%; under `CC(Cc1ccccc1F)C(=O)Nc1ccc(OCCC(N)=O)cc1` (stereo not given), -3.92%.
The figure for `CS(=O)(=O)CCC(=O)Nc1nccn1Cc1ccccc1Cl` is 0.444%.
The figure for `CCN(CC)S(=O)(=O)CC(=O)N1CCc2ccc(C)cc21` is -7.29%.
